Measurements: US11840686B2, “Modulation of prekallikrein (PKK) expression” (Ionis Pharmaceuticals, Inc., priority 2013, dated 2023)
Strand notation (5' to 3'): a small letter for the sugar, then the base; units joined by * are phosphorothioate-linked, units joined directly phosphodiester-linked; [ ] holds rarer units or linkages, { } end groups; capitals alone tell only the bases. e = 2'-O-(2-methoxyethyl) (MOE); [5mC] = 5-methylcytosine; d = 2'-deoxy (DNA)

Tests used:
human PKK mRNA [1] = assay: Dose-dependent antisense inhibition of human PKK in HepaRG cells, 0.19-5.00 uM (Example 5); assay type: cell-based; conditions: for percent inhibition of PKK mRNA, 0.19 μM: 0.19 μM antisense oligonucleotide; for percent inhibition of PKK mRNA, 0.56 μM: 0.56 μM antisense oligonucleotide; for percent inhibition of PKK mRNA, 1.67 μM: 1.67 μM antisense oligonucleotide; for percent inhibition of PKK mRNA, 5.00 μM: 5.00 μM antisense oligonucleotide
Experimental: Cells were plated at a density of 20,000 cells per well and transfected using electroporation with 0.19 μM, 0.56 μM, 1.67 μM, and 5.00 μM concentrations of antisense oligonucleotide. After a treatment period of approximately 16 hours, RNA was isolated from the cells and PKK mRNA levels were measured by quantitative real-time PCR. Human PKK primer probe set RTS3454 was used to measure mRNA levels. PKK mRNA levels were adjusted according to total RNA content, as measured by RIBOGREEN®. The antisense oligonucleotides were tested in a series of experiments that had similar culture conditions.
The half maximal inhibitory concentration (IC50) of each oligonucleotide is also presented.

human PKK mRNA [2] = assay: Antisense inhibition of human PKK mRNA in HepaRG cells, 5,000 nM (Example 2); assay type: cell-based
How it was run: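 Percent inhibition of PKK mRNA is relative to untreated control, with qRT-PCR (probe set RTS3454) values adjusted to total RNA by RIBOGREEN. Oligonucleotides, fully phosphorothioate 2′-MOE gapmers, were delivered at 5,000 nM by electroporation into 20,000 HepaRG cells/well for about 24 h.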

[3] = HepaRG cells, electroporation, approximately 16 hours, Table 38
[4] = 4 point dose response, HepaRG cells, Table 38
[5] = HepaRG cells, electroporation, 5,000 nM antisense oligonucleotide, approx. 24 hours, primer probe set RTS3454, relative to untreated control cells, Table 12
[6] = HepaRG cells, electroporation, approximately 16 hours, Table 37
[7] = Table 13, human PKK mRNA in HepaRG cells, 5-10-5 gapmers
[8] = HepaRG cells, electroporation, approximately 16 hours, Table 36
[9] = 4 point dose response, HepaRG cells, Table 36
[10] = Table 34, HepaRG, electroporation, ~16 h

Substance: 546403 (e[5mC]*e[5mC]*eA*eT*eG*dA*dA*d[5mC]*dA*dT*d[5mC]*d[5mC]*dT*dA*dT*e[5mC]*e[5mC]*eG*eT*eG; antisense) [compound 546403]
- percent inhibition of PKK at 0.19 μM (human PKK mRNA [1]; [3]): 0%
- percent inhibition of PKK at 0.56 μM (human PKK mRNA [1]; [3]): 20%
- percent inhibition of PKK at 1.67 μM (human PKK mRNA [1]; [3]): 37%
- percent inhibition of PKK at 5.00 μM (human PKK mRNA [1]; [3]): 41%
- IC50 (human PKK mRNA [1]; [4]): > 5000 nM
- % inhibition (human PKK mRNA [2]; [5]): 83%

Substance: 546410 (eG*eA*e[5mC]*eT*eT*dT*dG*dG*dG*dT*dT*dT*d[5mC]*dT*dG*e[5mC]*e[5mC]*eA*eA*e[5mC]; antisense) [compound 546410]
- percent inhibition of PKK at 0.19 μM (human PKK mRNA [1]; [3]): 13%
- percent inhibition of PKK at 0.56 μM (human PKK mRNA [1]; [3]): 43%
- percent inhibition of PKK at 1.67 μM (human PKK mRNA [1]; [3]): 52%
- percent inhibition of PKK at 5.00 μM (human PKK mRNA [1]; [3]): 75%
- IC50 (human PKK mRNA [1]; [4]): 1200 nM
- % inhibition (human PKK mRNA [2]; [5]): 83%

Substance: 546412 (eG*eG*e[5mC]*eT*eT*d[5mC]*dA*dA*dT*dA*dT*dT*dG*dA*d[5mC]*eT*eT*eT*eG*eG; antisense) [compound 546412]
- percent inhibition of PKK at 0.19 μM (human PKK mRNA [1]; [3]): 0%
- percent inhibition of PKK at 0.56 μM (human PKK mRNA [1]; [3]): 1%
- percent inhibition of PKK at 1.67 μM (human PKK mRNA [1]; [3]): 61%
- percent inhibition of PKK at 5.00 μM (human PKK mRNA [1]; [3]): 62%
- IC50 (human PKK mRNA [1]; [4]): 2300 nM
- % inhibition (human PKK mRNA [2]; [5]): 84%

Substance: 546429 (eG*e[5mC]*e[5mC]*e[5mC]*eA*d[5mC]*d[5mC]*dA*dA*d[5mC]*dA*dA*dT*d[5mC]*dT*e[5mC]*eT*eG*eG*eT; antisense) [compound 546429]
- percent inhibition of PKK at 0.19 μM (human PKK mRNA [1]; [3]): 6%
- percent inhibition of PKK at 0.56 μM (human PKK mRNA [1]; [3]): 10%
- percent inhibition of PKK at 1.67 μM (human PKK mRNA [1]; [3]): 44%
- percent inhibition of PKK at 5.00 μM (human PKK mRNA [1]; [3]): 69%
- IC50 (human PKK mRNA [1]; [4]): 2300 nM
- % inhibition (human PKK mRNA [2]; [5]): 84%

Substance: 546739 (eA*eT*eT*e[5mC]*eG*dG*dT*dG*dT*d[5mC]*dT*dT*dT*dA*d[5mC]*eT*eG*eG*e[5mC]*eT; antisense) [compound 546739]
- percent inhibition of PKK at 0.19 μM (human PKK mRNA [1]; [6]): 35%
- percent inhibition of PKK at 0.56 μM (human PKK mRNA [1]; [6]): 55%
- percent inhibition of PKK at 1.67 μM (human PKK mRNA [1]; [6]): 57%
- percent inhibition of PKK at 5.00 μM (human PKK mRNA [1]; [6]): 79%
- IC50 (human PKK mRNA [1]; 4 point dose response, HepaRG cells, Table 37): 600 nM
- percent inhibition of PKK mRNA, 0.19 μM (human PKK mRNA [1]; HepaRG cells): 4%
- percent inhibition of PKK mRNA, 0.56 μM (human PKK mRNA [1]; HepaRG cells): 62%
- percent inhibition of PKK mRNA, 1.67 μM (human PKK mRNA [1]; HepaRG cells): 84%
- percent inhibition of PKK mRNA, 5.00 μM (human PKK mRNA [1]; HepaRG cells): 86%
- IC50 (human PKK mRNA [1]; HepaRG cells, 0.19-5.00 μM): 600 nM
- % inhibition (human PKK mRNA [2]; [7]): 89%

Substance: 546753 (e[5mC]*eT*eG*eG*e[5mC]*dT*d[5mC]*dA*d[5mC]*dT*dA*dT*dA*dG*dG*e[5mC]*e[5mC]*e[5mC]*e[5mC]*eA; antisense) [compound 546753]
- percent inhibition of PKK at 0.19 μM (human PKK mRNA [1]; [8]): 28%
- percent inhibition of PKK at 0.56 μM (human PKK mRNA [1]; [8]): 47%
- percent inhibition of PKK at 1.67 μM (human PKK mRNA [1]; [8]): 83%
- percent inhibition of PKK at 5.00 μM (human PKK mRNA [1]; [8]): 96%
- IC50 (human PKK mRNA [1]; [9]): 500 nM
- percent inhibition of PKK mRNA, 0.19 μM (human PKK mRNA [1]; HepaRG cells): 17%
- percent inhibition of PKK mRNA, 0.56 μM (human PKK mRNA [1]; HepaRG cells): 31%
- percent inhibition of PKK mRNA, 1.67 μM (human PKK mRNA [1]; HepaRG cells): 70%
- percent inhibition of PKK mRNA, 5.00 μM (human PKK mRNA [1]; HepaRG cells): 91%
- IC50 (human PKK mRNA [1]; HepaRG cells, 0.19-5.00 μM): 900 nM
- % inhibition (human PKK mRNA [2]; [7]): 91%

Substance: 546825 (eG*eT*eA*eT*e[5mC]*dA*d[5mC]*dT*dG*dT*dA*d[5mC]*dT*dA*dG*eT*eT*eT*e[5mC]*e[5mC]; antisense) [compound 546825]
- percent inhibition of PKK at 5.00 μM (human PKK mRNA [1]; HepaRG cells, electroporation, approximately 16 hours, Table 41): 99%
- percent inhibition of PKK at 0.19 0μM (human PKK mRNA [1]; 0.19 0μM, HepaRG cells, electroporation, approximately 16 hours, Table 41): 38%
- percent inhibition of PKK at 0.56 0μM (human PKK mRNA [1]; 0.56 0μM, HepaRG cells, electroporation, approximately 16 hours, Table 41): 82%
- IC50 (human PKK mRNA [1]; 4 point dose response, HepaRG cells, Table 41): 200 nM
- percent inhibition of PKK at 0.19 μM (human PKK mRNA [1]; [10]): 46%
- percent inhibition of PKK at 0.56 μM (human PKK mRNA [1]; [10]): 73%
- percent inhibition of PKK at 1.67 μM (human PKK mRNA [1]; [10]): 86%
- percent inhibition of PKK at 5.00 μM (human PKK mRNA [1]; [10]): 88%
- IC50 (human PKK mRNA [1]; Table 34, PKK mRNA, HepaRG, electroporation, ~16 h): 200 nM
- % inhibition (human PKK mRNA [2]; [7]): 96%

Substance: 546826 (eA*eG*eT*eA*eT*d[5mC]*dA*d[5mC]*dT*dG*dT*dA*d[5mC]*dT*dA*eG*eT*eT*eT*e[5mC]; antisense) [compound 546826]
- percent inhibition of PKK at 0.19 μM (human PKK mRNA [1]; [8]): 17%
- percent inhibition of PKK at 0.56 μM (human PKK mRNA [1]; [8]): 40%
- percent inhibition of PKK at 1.67 μM (human PKK mRNA [1]; [8]): 87%
- percent inhibition of PKK at 5.00 μM (human PKK mRNA [1]; [8]): 97%
- IC50 (human PKK mRNA [1]; [9]): 700 nM
- % inhibition (human PKK mRNA [2]; [7]): 90%
